# Assay results as given in ChEMBL document CHEMBL5726789, “Substituted 6, 7-dialkoxy-3-isoquinoline derivatives as inhibitors of phosphodiesterase 10 (PDE 10A)” (2018).
# pIC50: −log10 of the molar value.
# Biological target: cAMP and cAMP-inhibited cGMP 3',5'-cyclic phosphodiesterase 10A (Homo sapiens, UniProt Q9Y233)
# Assay: Homogenous Time-Resolved Fluorescence Resonance Energy Transfer (TR-FRET) Technology: The phosphodiesterase assay was developed using the LANCE® cAMP kit (PerkinElmer). The assay buffer contained HBSS with 5 mM HEPES, 0.1% BSA, and 1.5 mM MgCl2, pH 7.4. PDE10A (BPS Bioscience) was used at 200 pg/well (with a specific activity of 3200 pmole/min/μg with assay conditions: 10 mM Tris-HCl, pH 7.4, 10 mM MgCl2, 1 mM MnCl2, 200 μM cAMP, 2.5 kU 5′ nucleotidase, 37° C., 20 min) and PDE4D3 (BPS Bioscience) was used at 100 pg/well (with a specific activity of 32713 pmole/min/μg with assay conditions: 10 mM Tris-HCl, pH 7.4, 10 mM MgCl2, 1 mM MnCl2, 200 μM cAMP, 2.5 kU 5′ nucleotidase, 37° C., 20 min). The Biotin-cAMP tracer, supplied in 10 mmol/L Tris-HCl buffered (pH 8.0) salt solution with 1 mmol/L ethylenediaminetetraacetic acid (EDTA), 0.1% bovine serum albumin (BSA), and 0.05% sodium azide, is used at a dilution of 1/375. The assay detection mixture contained the LANCE Eu-W8044 labeled streptavidin 1/2250 (supplied in 50 mmol/L Tris-HCl buffered (pH 7.8) salt solution with 0.9% sodium chloride (NaCl), 0.1% BSA, and 0.05% sodium azide) and the Alexa Fluor® 647-anti cAMP antibody 1/200 (supplied in 50 mmol/L Tris-HCl buffered (pH 7.8) salt solution with 0.9% NaCl, 0.1% BSA, and 0.05% sodium azide). Chemical compounds were dissolved in DMSO (final concentration 2% (v/v)).
# Sequence of cAMP and cAMP-inhibited cGMP 3',5'-cyclic phosphodiesterase 10A (Q9Y233 whole entry): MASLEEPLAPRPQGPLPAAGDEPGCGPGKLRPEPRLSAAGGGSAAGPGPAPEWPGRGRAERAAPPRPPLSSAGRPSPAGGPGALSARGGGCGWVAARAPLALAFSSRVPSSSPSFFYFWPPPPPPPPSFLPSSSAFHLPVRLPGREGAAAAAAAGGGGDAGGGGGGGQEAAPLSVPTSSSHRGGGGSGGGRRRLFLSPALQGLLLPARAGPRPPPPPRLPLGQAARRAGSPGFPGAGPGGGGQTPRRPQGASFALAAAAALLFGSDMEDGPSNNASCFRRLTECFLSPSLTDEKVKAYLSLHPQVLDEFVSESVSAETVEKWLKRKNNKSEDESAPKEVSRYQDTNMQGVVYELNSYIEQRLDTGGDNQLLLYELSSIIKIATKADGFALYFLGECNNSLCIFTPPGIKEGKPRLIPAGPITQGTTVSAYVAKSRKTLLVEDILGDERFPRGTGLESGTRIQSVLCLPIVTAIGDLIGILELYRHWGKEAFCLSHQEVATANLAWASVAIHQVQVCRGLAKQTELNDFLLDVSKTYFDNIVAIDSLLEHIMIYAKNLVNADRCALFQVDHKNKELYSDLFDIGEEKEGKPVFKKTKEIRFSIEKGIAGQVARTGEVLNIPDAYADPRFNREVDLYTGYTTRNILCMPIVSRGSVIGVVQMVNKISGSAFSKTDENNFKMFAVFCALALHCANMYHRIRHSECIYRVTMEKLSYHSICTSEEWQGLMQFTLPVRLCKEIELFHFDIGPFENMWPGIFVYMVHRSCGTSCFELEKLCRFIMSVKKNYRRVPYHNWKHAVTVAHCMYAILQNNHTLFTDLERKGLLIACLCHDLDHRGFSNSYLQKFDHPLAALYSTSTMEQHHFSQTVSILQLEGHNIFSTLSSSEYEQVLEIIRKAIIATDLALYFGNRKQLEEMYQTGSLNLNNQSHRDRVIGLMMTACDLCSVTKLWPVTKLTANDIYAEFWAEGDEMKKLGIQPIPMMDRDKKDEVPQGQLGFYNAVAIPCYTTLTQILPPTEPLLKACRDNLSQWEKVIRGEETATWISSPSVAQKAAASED
row,pIC50,SMILES
1,7.59,CCn1c2ccccc2c2cc(Cc3cncc4cc(OC)c(OC)cc34)ccc21
2,6.80,CCCc1ncc(Cc2cc3cc(OC)ccc3nc2OCC#N)c2cc(OC)c(OC)cc12
3,7.23,CCCc1ncc(Cc2ccc3cccc(OC(C)(C)C(N)=O)c3n2)c2cc(OC)c(OC)cc12
